Target: T1, nNOS (Rattus norvegicus, UniProt P29476)
T1 construct: Rat cerebelli were used as the starting tissue; from tissue; host or cells: rat cerebellum (20,000 g supernatant of homogenate)
Experiment: NOS assay (HTS NOS assay, radioactive arginine, filter plate)
Format: biochemical
Conditions: enzyme preparation from rat cerebelli
Description: This assay allows the determination of the percentage inhibition of NO synthase by an active compound by means of measurement of the NOS activity under the action of the active compound. In this procedure, NO synthase is mixed together with radioactively labelled arginine and the active compound under suitable conditions. After discontinuation of the NO formation reaction at a given point in time, the amount of unreacted arginine is determined directly or indirectly. Comparison of this amount with the amount of arginine which remains in a sample from the mixture of NOS and arginine without the addition of active compound and under otherwise identical conditions gives the % inhibition of NO synthase by the active compound tested. This assay can be carried out as follows:
incubation of NO synthase with labelled arginine as the substrate in a reaction vessel,
separation of the labelled arginine from the labelled citrulline possibly formed as the product of the enzymatic reaction at a point in time at which the concentration of citrulline increases,
measurement of the amount of arginine separated off in the particular case.
The separation is carried out via a filter plate membrane.
This NOS assay is particularly suitable for a “high throughput screening” (HTS) on microtitre plates (MTP).
In this HTS NOS assay, radioactive arginine is used as the substrate. The assay volume can be chosen in the range between 25 μl and 250 μl, depending on the nature of the microtitre plate (MTP). Cofactors and coenzymes are added, depending on the enzyme source used. The incubation of the batches in this microtitre plate (assay MTP) according to step (a) is carried out at room temperature and is between 5 and 60 minutes, depending on the enzyme activity (units) used. At the end of the incubation (step (a)), the plate is placed in a cell harvester equipped with an MTP which has a cation exchange membrane as the filter base (filter MTP). All the batches of the assay MTP are transferred into this filter MTP and filtered with suction over a cation exchanger filter plate, a paper filter loaded with phosphate groups. The filter MTP is then washed with buffer or water. The arginine substrate which remains is bonded to the cation exchanger with the aid of this procedure, while the radioactive citrulline formed enzymatically is washed out quantitatively. After drying of the filter MTP and addition of scintillation liquid, the arginine bonded can be counted on a scintillation counter. A non-inhibited NOS reaction is reflected in a low radioactivity. An inhibited enzyme reaction means that the radioactive arginine has not been reacted, i.e. there is a high radioactivity on the filter.
Arginine, L-[2,3,4-^3H]-monohydrochloride; order no. NET-1123, NEN • CaCl2, anhydrous; order no. 2388.1000; Merck KGaA • 1,4-dithiothreitol (DTT), order no. 708984; ROCHE • Na2EDTA-dihydrate; order no. 03680; FLUKA • HEPES, order no. H-3375; SIGMA • NADPH, tetrasodium salt; order no. 1585363; ROCHE • TRIS; ORDER no. 93349; FLUKA
Enzyme preparation buffer: 50 mM Tris-HCl with 1 mM EDTA: The pH of the buffer was adjusted to 7.4 at 4° C.
Incubation buffer (medium): 50 mM HEPES with 1 mM EDTA; 1.25 mM CaCl2 and 1 mM dithiothreitol.
The pH of the buffer was adjusted to 7.4 at 25° C.
Rat cerebelli were used as the starting tissue. The animals were narcotized and sacrificed, the brain tissue, the cerebellum, was removed, 1 ml of enzyme preparation buffer was added (4° C.) per rat cerebellum and the tissue was broken down with a Polytron homogeniser for 1 min at 6,000 rpm. Centrifugation at 4° C. for 15 min at 20,000 g and subsequent decanting of the supernatant and freezing in portions at −80° C. (precipitate discarded) then took place.
Compounds according to the invention were tested for nNOS inhibition in the NOS assay described above.

SMILES	inhibition at 10 µM [%]
CCN(CC)CCn1c(C2CCCN2C(=O)c2ccc(F)cc2)c(-c2ccccc2)c2cc(Cl)ccc21 (centres unmarked) [Example 13, {2-[5-Chloro-1-(2-diethylamino-ethyl)-3-phenyl-1H-indol-2-yl]-pyrrolidin-1-yl}-(4-fluoro-phenyl)-methanone]	47
CCN(CC)CCn1c(C2CCCN2C(=O)c2cc(OC)cc(OC)c2)c(-c2ccccc2)c2cc(Cl)ccc21 (centres unmarked) [Example 26, {2-[5-Chloro-1-(2-diethylamino-ethyl)-3-phenyl-1H-indol-2-yl]-pyrrolidin-1-yl}-(3,5-dimethoxy-phenyl)-methanone]	51
COCCOCC(=O)N1CCCC1c1c(-c2ccccc2)c2cc(Cl)ccc2n1C (centres unmarked) [Example 35, 1-[2-(5-Chloro-1-methyl-3-phenyl-1H-indol-2-yl)-pyrrolidin-1-yl]-2-(2-methoxy-ethoxy)-ethanone]	41
Cn1c(C2CCCN2C(=O)C2CC2)c(-c2ccccc2)c2cc(Cl)ccc21 (centres unmarked) [Example 48, [2-(5-Chloro-1-methyl-3-phenyl-1H-indol-2-yl)-pyrrolidin-1-yl]-cyclopropyl-methanone]	35
CC#CCn1c(C2CCCN2C(=O)COC)c(-c2ccccc2)c2cc(Cl)ccc21 (centres unmarked) [Example 73, 1-[2-(1-But-2-ynyl-5-chloro-3-phenyl-1H-indol-2-yl)-pyrrolidin-1-yl]-2-methoxy-ethanone]	54

Further lines, results first:

inhibition at 10 µM [%]	SMILES
45	CCN(CC)CCn1c(C2CCCN2C(=O)c2ccco2)c(-c2ccccc2)c2cc(Cl)ccc21 (centres unmarked) [Example 9, {2-[5-Chloro-1-(2-diethylamino-ethyl)-3-phenyl-1H-indol-2-yl]-pyrrolidin-1-yl}-furan-2-yl-methanone]
34	CCOC(=O)CCC(=O)N1CCCC1c1c(-c2ccccc2)c2cc(Cl)ccc2n1CCN(CC)CC (centres unmarked) [Example 12, 4-{2-[5-Chloro-1-(2-diethylamino-ethyl)-3-phenyl-1H-indol-2-yl]-pyrrolidin-1-yl)-4-oxo-butyric acid ethyl ester]
38	CCN(CC)CCn1c(C2CCCN2C(=O)C2CCC2)c(-c2ccccc2)c2cc(Cl)ccc21 (centres unmarked) [Example 15, {2-[5-Chloro-1-(2-diethylamino-ethyl)-3-phenyl-1H-indol-2-yl]-pyrrolidin-1-yl}-cyclobutyl-methanone]
36	CCN(CC)CCn1c(C2CCCN2C(=O)c2ccc(Cl)nc2)c(-c2ccccc2)c2cc(Cl)ccc21 (centres unmarked) [Example 17, {2-[5-Chloro-1-(2-diethylamino-ethyl)-3-phenyl-1H-indol-2-yl]-pyrrolidin-1-yl)-(6-chloro-pyridin-3-yl)-methanone]
35	CCCCCC(=O)N1CCCC1c1c(-c2ccccc2)c2cc(Cl)ccc2n1CCN(CC)CC (centres unmarked) [Example 20, 1-{2-[5-Chloro-1-(2-diethylamino-ethyl)-3-phenyl-1H-indol-2-yl]-pyrrolidin-1-yl}-hexan-1-one]
41	CCOc1ccc(C(=O)N2CCCC2c2c(-c3ccccc3)c3cc(Cl)ccc3n2CCN(CC)CC)cc1 (centres unmarked) [Example 28, {2-[5-Chloro-1-(2-diethylamino-ethyl)-3-phenyl-1H-indol-2-yl]-pyrrolidin-1-yl}-(4-ethoxy-phenyl)-methanone]

Source: US7271192B2, “Substituted 2-pyrrolidine-2-yl-1H-indole compounds” (Gruenenthal GmbH, priority 2001, dated 2007)
